Assay results taken from article PMC7226839, “Modulation of STAT3 Signaling, Cell Redox Defenses and Cell Cycle Checkpoints by β-Caryophyllene in Cholangiocarcinoma Cells: Possible Mechanisms Accounting for Doxorubicin Chemosensitization and Chemoprevention” (Cells, 2020).
Structures can show the parent of a compound that is named as a salt. Where two headings read alike, the source gives them in different places.

Tests used:
[1] = tested on: H69 noncancerous cholangiocytes; test: MTT cytotoxicity and combination assay; type: cell-based; details: for IC50: combination with 50 µM β-caryophyllene; for cytotoxicity: H69, 100 μM
Protocol: (§2) To perform the assay, the cells were grown for 24 h into 96-well microplates (2 × 10^4 cells/well), then treated with the test substances and incubated according to the applied protocol schedule [26]. At the end of incubation, the cytotoxicity was measured by the 3-[4,5-dimethylthiazol-2-yl] -2,5-diphenyl tetrazolium bromide (MTT) assay, using an Epoch Microplate Spectrophotometer (BioTek, AHSI, Milan Italy). At least three biologic replicates, in which each concentration was tested in triplicate, were made. Comparing the number of viable cells in each treatment respect to the vehicle control allows to measure a cell viability reduction. The effect of the treatment was considered as cytotoxic when at least a 30% lowering of cell viability occurred [59].
(§3) In the single long-term schedule, confluence cells were exposed to the test substances for 24 h and 72 h (Figure S1), then the cytotoxicity was measured by the MTT assay. Under the metronomic treatment, the cells were subjected to a short and/or repeated exposure of 2 h to the test substances (Figure S2), as follow: 1) single treatment, the cells were treated for 2 h, then washed and incubated for 72 h; 2) two-repeated treatments, the cells were exposed to the test substances for 2 h, then washed and incubated for functional recovery for further 2 h. After recovering, the cells were further treated with the test substances for 2 h, washed and incubated for 72 h. Finally, the cytotoxicity was measured by the MTT assay as described above.
(§4) RR represents the cytotoxicity enhancement ratio and allows to quantify the efficacy increase of a drug (A) in the presence of a chemosensitizing agent (B), by relating the IC50 of A alone (CA) and that of IC50 of its combination with B (CA+B).

[2] = tested on: γH2AX in Mz-ChA-1 cholangiocarcinoma cells; test: Western blotting of phosphorylated H2AX (Ser139); type: cell-based, human; details: for increase in γH2AX levels compared the control: doxorubicin 20 µM
Protocol: (§5) To perform the analysis, the cells were seeded in 6-well plates, then subjected to the treatment with β-caryophyllene (50 µM) and doxorubicin (20 µM), alone and in combination, for the required time exposure, then harvested by centrifugation and washed in PBS. A lysis buffer, containing SDS (2% w/w), Tris-hydrochloride (20 mM; pH 7.4), urea (2 M), glycerol (10% w/w), sodium orthovanadate (2 mM), DTT (10 mM) and a protease inhibitors cocktail (1:100 dilution) was used to achieve the cell protein separation. The separated proteins were resolved by SDS-PAGE 10% TGX FastCast™ Acrylamide gel (BioRad, Segrate, Italy) and transferred on PVDF membranes (BioRad, Segrate, Italy) by using a Trans-Blot® Turbo™ Transfer System (BioRad, Segrate, Italy). The membranes were blocked with a 0.2% w/v I-block (Thermo Fisher Scientific, Rodano, Italy) in Tris-buffered saline containing 0.05% Tween-20 (TBS-T), then stained with the desired primary antibodies. […] After rinsing three times in TBS-T to remove unbound primary antibody, the membranes were incubated for an additional hour with the appropriate horseradish peroxidase- or alkaline phosphatase-conjugated secondary antibody (Jackson ImmunoResearch, Pero, Italy). […] Each experiment was performed at least in three replicates.

[3] = tested on: Mz-ChA-1 cholangiocarcinoma cells; test: Cell cycle analysis (PI flow cytometry); type: cell-based, human; details: Mz-ChA-1, 24 h
Protocol: Analysis of cell cycle progression was performed by applying a one parameter flow cytometric method, in which cell cycle distribution was evaluated on the basis of DNA content. Briefly, after treatments, the harvested cells (about 1 × 10^6 cells) were fixed in ice cold 70% ethanol and stored for at least 2 h at 4 °C. Thereafter, the ethanol-suspended cells were separated by centrifugation, rinsed in PBS, then resuspended in a propidium iodide (PI) staining solution, containing 0.1% v/v Triton X-100, 10 μg/mL PI and 100 μg/mL DNase-free RNase A in PBS and stored at 4 °C in the dark for at least 30 min. For each sample, the mean fluorescence of PI (maximum excitation of PI bound to DNA at 536 nm; emission at 617 nm) in 50,000 cells was measured using a BD Accuri^TM C6 flow cytometer FL2 channel (BD Biosciences, Milan, Italy) and deconvolution of the DNA content frequency histograms, to estimate the proportions of cells in the respective phases of the cycle, was made by Modfit 4.1 software (Verity Software House, Topsham, ME, USA).

[4] = tested on: ROS in Mz-ChA-1 cholangiocarcinoma cells; test: Intracellular ROS determination (DCFH-DA); type: cell-based, human; details: β-caryophyllene 50 µM, doxorubicin 20 µM
Protocol: To perform the assay, the cells, seeded in 6-well plates (1 × 10^6 cells/well), were treated with the tested substances (β-caryophyllene, 50 µM; doxorubicin, 20 µM) for the required time exposure, then the ROS levels were measured in the pellets by the 2,7-dichlorofluorescein diacetate assay (DCFH-DA), as previously reported. […] In each experiment, a vehicle control, corresponding to a basal ROS level, were included too. For all the treatments, the mean DCF fluorescence of 50,000 cells was determined by a BD Accuri^TM C6 Software version 1.0.264.21 (BD Biosciences, Milan, Italy).

[5] = tested on: glutathione in Mz-ChA-1 cholangiocarcinoma cells; test: HPLC determination of intracellular GSH and GSSG; type: cell-based, human
Protocol: (§1) Intracellular levels of reduced (GSH) and oxidized (GSSG) glutathione were measured by HPLC-UV, as previously described. Briefly, after treatments with β-caryophyllene (50 µM) and doxorubicin (20 µM), the harvested cells (1 × 10^6 cells) were suspended in 10% ice-cold TCA and centrifuged for 15 min at 9000× g, then supernatant was collected and GSH and GSSG measured by HPLC with UV detection at 215 nm. The separation was achieved using a InfinityLab poroshell 120 EC-C18 column (3 × 150 mm, 2.7 μm) at a flow rate of 0.8 mL/min, using the following elution gradient: 0–3 min 100% A + 0% B, 3–10 min from 100% A to 100% B. The mobile phase A contained 0.1% trifluoroacetic acid in water, whereas mobile phase B was 0.1% trifluoroacetic acid in water/acetonitrile (93:7). Under our chromatographic conditions, retention times of GSH and GSSG were 2.58 min and 7.01 min, respectively.

[6] = tested on: glutathione in H69 noncancerous cholangiocytes; test: HPLC determination of intracellular GSH and GSSG; type: cell-based; details: H69, 24 h
Protocol: as §1

[7] = tested on: Mz-ChA-1 cholangiocarcinoma cells; test: Annexin-V-Cy3/CFDA flow cytometry (apoptotic and viable cells); type: cell-based, human; details: for inhibition of viable cells (CF fluorescence): Mz-ChA-1, 2 h and 24 h, maximum
Protocol: Apoptosis extent was evaluated by Annexin-V staining (Annexin V Apoptosis detection kit, Santa Cruz Biotechnology, DBA, Milan, Italy), which is known to specifically binds phosphatidylserine, a […] which is normally embedded in the inner leaflet of plasma membrane and externalized during apoptosis, as a result of the membrane changes. Therefore, apoptotic cells can be directly detected through their staining with the fluorochrome-conjugated Annexin V. The analysis was performed by both fluorescence microscopy and flow cytometry in order to both visualize the event and to achieve a quick and accurate quantification of apoptotic cells.
For flow cytometry analysis, the cells (1 × 10^6 cells) were grown in 6-well plates, treated with β-caryophyllene (50 µM) and doxorubicin (20 µM), alone and in combination for the required time exposure, then collected by trypsinization and resuspended in PBS in the presence of the fluorochrome Annexin-V-Cy3 (4 μg/mL in cell suspension). In order to detect viable cells, the nonfluorescent probe carboxyfluorescein diacetate (CFDA; 2 μg/mL in cell suspension), hydrolyzed in living cells by esterases to its fluorescent carboxyfluorescein metabolite (CF), was included too. For each sample, the mean fluorescence of Annexin-V-Cy3 (excitation/emission at 543/570 nm, respectively) and CF (excitation/emission at 492/514 nm, respectively) in 50,000 cells was measured using a BD Accuri^TM C6 flow cytometer, FL-2 and FL-1 channels respectively (BD Biosciences, Milan, Italy). Although standard flow cytometry apoptosis assays use Annexin V-FITC, we chosen the conjugate with Cy3 in order to avoid the overlapping in the excitation wavelength of annexin V-FITC and CF, which could interfere with the analysis. Cells undergoing apoptosis were also sorted by their typical forward- and side scatter (FSC-SSC) pattern, i.e., increased SSC and decreased FSC, respect to the viable cells. Multiparameter analysis and gating of forward and side scatter as well as fluorescence detection were performed using a BD Accuri^TM C6 Software version 1.0.264.21 (BD Biosciences, Milan, Italy).

[8] = tested on: phospho(Tyr705)-STAT3 in Mz-ChA-1 cells; test: Western blotting of phospho(Tyr705)-STAT3; type: cell-based, human; details: for increase of phospho(Tyr705)-STAT3 compared the control: β-caryophyllene 50 µM, doxorubicin 20 µM
Protocol: as §5

[9] = tested on: Mz-ChA-1 cholangiocarcinoma cells; test: cells; details: Homo sapiens, combination with 50 µM β-caryophyllene
Protocol: as §2, §3
The type of interaction between β-caryophyllene and doxorubicin, i.e., synergy, additivity or antagonism, was evaluated by measuring three parameters: reversal ratio value (RR), combination index (CI) and isobolographic analysis (IB) [24].
as §4
CI gives a quantitative measure of the interaction and is calculated as follow: (CA,X/ICX,A) + (CB, X/ICX,B), in which CA,X and CB,X are the concentrations of A and B at the IC50 value of their combination, whereas ICX,A and ICX,B are the IC50 values of the substances alone. When the CI value was equal to, less or higher than 1, the interaction between test substances was evaluated as additivity, synergism and antagonism, respectively.
The isobolographic analysis, displaying the extent of the interaction between drug A and the potential chemosensitizer B, was obtained by a two-coordinate plot, wherein the IC50 concentrations of A and B were plotted on the x and y axes, corresponding to (CA, 0) and (C0, B), respectively. The substance concentrations used in the combination (CA+B) were placed in the same plot. A nonlinear regression analysis was carried out by GraphPad Prism™ 6.00 software, in order to connect the IC50 value of each drug alone and that of the combination, whereas the line connecting CA and CB represented an additive interaction. A synergism between A and B occurred when CA+B were located below the line, while the interaction was antagonistic when the values were above the line [60].

[10] = H69, double repeated 2 h exposure + 72 h recovery
[11] = H69, single 2 h exposure + 72 h recovery
[12] = β-caryophyllene 50 µM, doxorubicin 20 µM
[13] = 24 h, read-out: IC50 (CL), Mz-ChA-1, 24 h exposure
[14] = 72 h, read-out: IC50 (CL), Mz-ChA-1, 72 h exposure
[15] = read-out: IC50 (CL), Mz-ChA-1, double repeated 2 h exposure + 72 h recovery
[16] = read-out: IC50 (CL), Mz-ChA-1, single 2 h exposure + 72 h recovery

## C=C1CC/C=C(\C)CC[C@@H]2[C@@H]1CC2(C)C [β-Caryophyllene, β-caryophyllene]
[1]; 24 h, H69, 24 h exposure
  IC50: 148 µM
[1]; 72 h, H69, 72 h exposure
  IC50: 146 µM
[1]; H69
  maximum cytotoxicity increase, long-term compared metronomic treatments (IC50): about 1.2 fold
[1]; H69, 50 μM
  reduction of cell viability: lower than 20%
[1]; H69, 125 μM, 24 h and 72 h
  inhibition of cell viability vs. control: about 40%
[1]; H69, 125 μM, metronomic schedules
  effect on cell proliferation: without affecting cell proliferation
[1]; [10]
  IC50: 161 µM
[1]; [11]
  IC50: 177 µM
[2]; Mz-ChA-1, 50 µM, 2 h and 24 h
  effect on γH2AX levels: null effects
[3]; β-caryophyllene 50 µM
  increase in G0/G1 phase vs. control: about 1.2 fold
[3]; [12]
  increase in G2/M phase vs. control: about 1.5 fold
[4]; Mz-ChA-1, 2 h
  increase of ROS levels with respect to the control: about 1.6 fold
[4]; Mz-ChA-1, 24 h
  increase of ROS levels with respect to the control: ~1.2 fold
[5]; Mz-ChA-1, 24 h
  change in GSSG: without changes in GSSG
[5]; Mz-ChA-1, 24 h, β-caryophyllene 50 µM
  increase of GSH levels vs. control: about 2.5 fold
[5]; Mz-ChA-1, β-caryophyllene alone
  increase of GSH/GSSG ratio: about 2 fold
[6]
  change in the amount of GSSG: slightly increased
[6]; β-caryophyllene 50 µM
  basal GSH/GSSG ratio: retained
  enhancement of GSH: ~1.5 fold
[7]
  inhibition of viable cells (CF fluorescence): about 1.2 fold
[7]; Mz-ChA-1, β-caryophyllene 50 µM
  effect on basal apoptosis (annexin-V-Cy3): did not affected the basal apoptosis
[8]; Mz-ChA-1, 2 h
  increase of phospho(Tyr705)-STAT3 compared the control: ≥ 3 fold
[8]; Mz-ChA-1, 24 h
  increase of phospho(Tyr705)-STAT3 compared the control: ≥ 3 fold
[9]; [13]
  IC50: 124 µM
[9]; [14]
  IC50: 90 µM
[9]; [15]
  IC50: 140 µM
[9]; [16]
  IC50: 172 µM

## COc1cccc2c1C(=O)c1c(O)c3c(c(O)c1C2=O)C[C@@](O)(C(=O)CO)C[C@@H]3O[C@H]1C[C@H](N)[C@H](O)[C@H](C)O1 [Doxorubicin, doxorubicin hydrochloride]
[1]; 24 h, H69, 24 h exposure
  IC50: 13.6 µM
[1]; 72 h, H69, 72 h exposure
  IC50: 4 µM
[1]; H69
  IC50 reduction, double short exposure compared the single one: 1.5 fold
  cytotoxicity lowering, double repeated metronomic vs 24 h exposure (IC50): ~3 fold
  cytotoxicity lowering, single metronomic vs 24 h exposure (IC50): ~7 fold
  fold more toxic after 72 h with respect to 24 h (IC50 comparison): about 3 fold
[1]; H69, 10 µM, 24 h
  inhibition of cell viability: about 40%
[1]; H69, 10 µM, 72 h
  fold more toxic than the 24 h protocol: 2 fold
  maximal cytotoxicity: about 80%
[1]; double repeated 2 h exposure
  cytotoxicity: ~70%
[1]; single 2 h exposure
  cytotoxicity: about 60%
[1]; H69, 200 µM, 24 h
  maximum inhibition of cell viability: about 80%
[1]; [10]
  IC50: 54.4 µM
[1]; H69, metronomic schedules
  fold safer than the long-term exposures of 72 h: about 100 fold
  nontoxic up to (concentration): up to 20 μM
[1]; [11]
  IC50: 81.8 µM
[2]; Mz-ChA-1, 2 h
  increase in γH2AX levels compared the control: about 60 fold
[2]; Mz-ChA-1, 24 h
  increase in γH2AX levels compared the control: ~140 fold
[3]; doxorubicin 20 µM
  increase of cell accumulation in S-phase compared the control: ~1.6 fold
  reduction of G0/G1 phase: at least 4 fold
[3]; [12]
  increase in G2/M phase vs. control: about 1.4 fold
[4]; Mz-ChA-1, 2 h
  increase of ROS levels with respect to the control: ~7 fold
[4]; Mz-ChA-1, 24 h
  increase of ROS levels with respect to the control: ~4 fold
[5]; Mz-ChA-1, 2 h
  lowering of GSH/GSSG ratio: 1.3 fold
[5]; Mz-ChA-1, 2 h, doxorubicin 20 µM
  change in GSH: not significantly decreased
[5]; Mz-ChA-1, 24 h
  change in GSSG: without changes in the GSSG amount
  lowering of GSH/GSSG ratio: 4 fold
[5]; Mz-ChA-1, 24 h, doxorubicin 20 µM
  reduction of GSH: at least 3 fold
[6]
  change in the amount of GSSG: slightly but not significantly reduced
  depletion of GSH: ~2 fold
  lowering of basal GSH/GSSG ratio: ~1.6 fold
[7]
  inhibition of viable cells (CF fluorescence): up to 1.5 fold
[7]; Mz-ChA-1, 24 h
  increase of apoptotic rate vs the basal rate in the control: ~3 fold
[8]; Mz-ChA-1, 2 h
  increase of phospho(Tyr705)-STAT3 compared the control: ~100 fold
[8]; Mz-ChA-1, 24 h
  increase of phospho(Tyr705)-STAT3 compared the control: ~20 fold
[8]; doxorubicin-promoted, Mz-ChA-1 vs H69
  higher phospho(Tyr705)-STAT3 expression in Mz-ChA-1 with respect H69 cholangiocytes: ~10 fold
[9]; [13]
  IC50: 27.8 µM
[9]; [14]
  IC50: 3.8 µM
[9]; [15]
  IC50: 11.6 µM
[9]; [16]
  IC50: 19.8 µM
